The values that follow come from patent US9884832B2 (priority 2011, dated 2018).

One test deals with AM2 S31 (wild-type serine at position 31 in the M2 protein), influenza virus A/Udorn/72 (Influenza A virus, UniProt P0DOF5). Put plainly: cell-based. As to conditions: 100 uM; Xenopus oocytes; activity range class; read-out: S31 OOcyte Inhibition at 100 uM (%).
Chain of AM2 S31 (wild-type serine at position 31 in the M2 protein), influenza virus A/Udorn/72 (P0DOF5 whole entry, looked up): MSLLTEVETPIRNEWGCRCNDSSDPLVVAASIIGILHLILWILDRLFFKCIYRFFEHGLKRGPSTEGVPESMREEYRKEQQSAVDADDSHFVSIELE
As a reminder, the inhibition is the change of the read-out against control, counted positive when it falls. Take `Cc1cc(CNC23CC4CC(CC(C4)C2)C3)sc1Br` [Example 77a, N-((5-bromo-4-methylthiophen-2-yl)methyl)adamantan-1-amine]: the inhibition at 100 µM fell in the range of 31 to 95%.

`Cc1ccc(CNC23CC4CC(CC(C4)C2)C3)s1` [Example 78a, N-((5-methylthiophen-2-yl)methyl)adamantan-1-amine]: the inhibition at 100 µM was 31 to 95%. Same read-out and setting: the same measure for `Clc1ccc(CNC23CC4CC(CC(C4)C2)C3)s1` [Example 79a, N-((5-chlorothiophen-2-yl)methyl)adamantan-1-amine]: 31 to 95%; for `COc1cc(Cl)sc1CNC12CC3CC(CC(C3)C1)C2` [Example 80a]: 31 to 95%; for `Brc1ccc(CNC23CC4CC(CC(C4)C2)C3)s1` [Example 81a, N-((5-Bromothiophen-2-yl)methyl)adamantan-1-amine]: 31 to 95%. The same measure, in the same setting: the same measure for `CC(NC12CC3CC(CC(C3)C1)C2)c1ccc(I)s1` (stereo not shown) [Example 82a, N-(1-(5-iodothiophen-2-yl)ethyl)adamantan-1-amine]: 31 to 95%. Still for that read-out and setting: the same measure for `Brc1nc(CNC23CC4CC(CC(C4)C2)C3)cs1` [Example 83a, N-((2-bromothiazol-4-yl)methyl)adamantan-1-amine]: 31 to 95%; for `CC(C)c1csc(CNC23CC4CC(CC(C4)C2)C3)n1` [Example 84a, N-((4-isopropylthiazol-2-yl)methyl)adamantan-1-amine]: 0 to 30%. Consider `CC(C)n1cc(CNC23CC4CC(CC(C4)C2)C3)cn1` [Example 85a, N-((1-isopropyl-1H-pyrazol-4-yl)methyl)adamantan-1-amine], for which the inhibition at 100 µM was 0 to 30%. For the molecule `Brc1cnc(CNC23CC4CC(CC(C4)C2)C3)s1` [Example 86a, Adamantan-1-yl-(5-bromo-thiazol-2-ylmethyl)-amine], the inhibition at 100 µM lay in the range of 0 to 30%. Turning to `Brc1ccc(CNC23CC4CC(CC(C4)C2)C3)o1` [Example 87a, Adamantan-1-yl-(5-bromo-furan-2-ylmethyl)-amine], the inhibition at 100 µM fell in the range of 31 to 95%. In the case of `Brc1ccc(CNC23CC4CC(CC(C4)C2)C3)[nH]1` [Example 88a, Adamantan-1-yl-(5-bromo-1H-pyrrol-2-ylmethyl)-amine], the inhibition at 100 µM is 31 to 95%. For the molecule `Brc1cnc(CNC23CC4CC(CC(C4)C2)C3)[nH]1` [Example 89a, Adamantan-1-yl-(5-bromo-1H-imidazol-2-ylmethyl)-amine], the inhibition at 100 µM was 31 to 95%. Turning to `CSc1ccc(CNC23CC4CC(CC(C4)C2)C3)s1` [Example 90a], the inhibition at 100 µM lay in the range of 31 to 95%.

For the molecule `Ic1ccc(CNC23CC4CC(CC(C4)C2)C3)s1` [Example 91a, N-((5-Iodothiophen-2-yl)methyl)adamantan-1-amine], the inhibition at 100 µM was in the range of 31 to 95%. Still for that read-out and setting: with `CC(NC12CC3CC(CC(C3)C1)C2)c1ccc(C#N)s1` (stereo not shown) [Example 92a, 5-(1-(adamantan-1-ylamino)ethyl)thiophene-2-carbonitrile] the figure was 31 to 95%; with `Nc1ncc(CNC23CC4CC(CC(C4)C2)C3)s1` [Example 93a, 5-((adamantan-1-ylamino)methyl)thiazol-2-amine], 31 to 95%; with `Brc1cc(CNC23CC4CC(CC(C4)C2)C3)on1` [Example 94a, N-((3-bromoisoxazol-5-yl)methyl)adamantan-1-amine], 0 to 30%.

The test is the same for the next values; noted with them: Table 1; 100 uM; Xenopus oocytes, pH 5.5, -20 mV; read-out: S31 OOcyte Inhibition at 100 uM (%).
`OCc1ccc(CNC23CC4CC(CC(C4)C2)C3)o1` [Example 77, [5-(Adamantan-1-ylaminomethyl)-furan-2-yl]methanol]: the inhibition at 100 µM was 0 to 30%. For `c1csc(-c2ccc(CNC34CC5CC(CC(C5)C3)C4)s2)c1` [Example 78, N-([2,2′-Bithiophen]-5-ylmethyl)adamantan-1-amine], the inhibition at 100 µM lay within 0 to 30%. The same measure, in the same setting: the same measure for `c1cc2cc(CNC34CC5CC(CC(C5)C3)C4)sc2s1` [Example 79, Adamantan-1-yl-thieno[2,3-b]thiophen-2-ylmethyl-amine]: 31 to 95%. Take `c1cc2[nH]c(CNC34CC5CC(CC(C5)C3)C4)cc2s1` [Example 80, Adamantan-1-yl-(4H-thieno[3,2-b]pyrrol-5-ylmethyl)-amine]: the inhibition at 100 µM was 31 to 95%. The same measure, in the same setting: with `c1cc2sc(CNC34CC5CC(CC(C5)C3)C4)cc2s1` [Example 81, Adamantan-1-yl-thieno[3,2-b]thiophen-2-ylmethyl-amine] the figure was 31 to 95%; with `c1cc2cc(CNC34CC5CC(CC(C5)C3)C4)[nH]c2s1` [Example 82, Adamantan-1-yl-(6H-thieno[2,3-b]pyrrol-5-ylmethyl)-amine], 31 to 95%.

With `c1cc2cc(CNC34CC5CC(CC(C5)C3)C4)sc2o1` [Example 83, Adamantan-1-yl-thieno[2,3-b]furan-5-ylmethyl-amine], the inhibition at 100 µM lay in the range of 31 to 95%. For `c1c(CNC23CC4CC(CC(C4)C2)C3)sc2c1CSC2` [Example 84, Adamantan-1-yl-(4,6-dihydro-thieno[3,4-b]thiophen-2-ylmethyl)-amine], the inhibition at 100 µM was 31 to 95%.

As to `[O-][S+]1Cc2cc(CNC34CC5CC(CC(C5)C3)C4)sc2C1` (stereo not shown) [Example 85, Adamantan-1-yl-(5-oxo-5,6-dihydro-4H-5M-thieno[3,4-b]thiophen-2-ylmethyl)-amine], the inhibition at 100 µM was 0 to 30%. The same measure, in the same setting: the same measure for `c1cn2cc(CNC34CC5CC(CC(C5)C3)C4)nc2s1` [Example 86, Adamantan-1-yl-imidazo[2,1-b]thiazol-6-ylmethyl-amine]: 31 to 95%; for `Clc1c(CNC23CC4CC(CC(C4)C2)C3)nc2sccn12` [Example 87, Adamantan-1-yl-(5-chloro-imidazo[2,1-b]thiazol-6-ylmethyl)-amine]: 0 to 30%; for `c1ccc2sc(CNC34CC5CC(CC(C5)C3)C4)cc2c1` [Example 88, Adamantan-1-yl-benzo[b]thiophen-2-ylmethyl-amine]: 0 to 30%. Same read-out and setting: the same measure for `c1ccc2oc(CNC34CC5CC(CC(C5)C3)C4)cc2c1` [Example 89, Adamantan-1-yl-benzofuran-2-ylmethyl-amine]: 0 to 30%; for `c1cnc2sc(CNC34CC5CC(CC(C5)C3)C4)cc2c1` [Example 90, Adamantan-1-yl-thieno[2,3-b]pyridin-2-ylmethyl-amine]: 0 to 30%; for `c1ccc2sc(CNC34CC5CC(CC(C5)C3)C4)nc2c1` [Example 91, Adamantan-1-yl-benzothiazol-2-ylmethyl-amine]: 0 to 30%. Still for that read-out and setting: with `c1ccc2[nH]c(CNC34CC5CC(CC(C5)C3)C4)nc2c1` [Example 92, Adamantan-1-yl-(1H-benzoimidazol-2-ylmethyl)-amine] the figure was 0 to 30%; with `c1ccc2[nH]c(CNC34CC5CC(CC(C5)C3)C4)cc2c1` [Example 93, Adamantan-1-yl-(1H-indol-2-ylmethyl)-amine], 0 to 30%. As to `c1nc2ccc(CNC34CC5CC(CC(C5)C3)C4)cc2[nH]1` [Example 94, Adamantan-1-yl-(3H-benzoimidazol-5-ylmethyl)-amine], the inhibition at 100 µM fell in the range of 0 to 30%. For `c1cc2cn[nH]c2cc1CNC12CC3CC(CC(C3)C1)C2` [Example 95, Adamantan-1-yl-(1H-indazol-6-ylmethyl)-amine], the inhibition at 100 µM is 31 to 95%.

Staying with this test, now noted: Table 3; 100 uM; Xenopus oocytes, pH 5.5, -20 mV; read-out: S31 OOcyte Inhibition at 100 uM (%).
For the molecule `CSc1ccccc1-c1cnc(CNC23CC4CC(CC(C4)C2)C3)s1` [Example 76b, Adamantan-1-yl-[5-(2-methylsulfanyl-phenyl)-thiazol-2-ylmethyl]-amine], the inhibition at 100 µM was 0 to 30%. Still for that read-out and setting: with `c1cc2nc(CNC34CC5CC(CC(C5)C3)C4)sc2s1` [Example 77b, Adamantan-1-yl-thieno[3,2-d]thiazol-2-ylmethyl-amine] the figure was 0 to 30%; with `c1cc2[nH]c(CNC34CC5CC(CC(C5)C3)C4)cc2o1` [Example 78b, Adamantan-1-yl-(4H-furo[3,2-b]pyrrol-5-ylmethyl)-amine], 31 to 95%; with `COc1ccc2nc(CNC34CC5CC(CC(C5)C3)C4)[nH]c2c1` [Example 79b, Adamantan-1-yl-(6-methoxy-1H-benzoimidazol-2-ylmethyl)-amine], 0 to 30%. Same read-out and setting: with `c1cnc2[nH]c(CNC34CC5CC(CC(C5)C3)C4)nc2c1` [Example 82b, N-((3H-imidazo[4,5-b]pyridin-2-yl)methyl)adamantan-1-amine] the figure was 0 to 30%; with `OC12CC3CC(C1)CC(NCc1noc(-c4ccccc4)n1)(C3)C2` [Example 84b, (1s,3r,5R,7S)-3-(((5-phenyl-1,2,4-oxadiazol-3-yl)methyl)amino)adamantan-1-61], 0 to 30%; with `CC(C)c1cc(CNC23CC4CC(CC(O)(C4)C2)C3)no1` [Example 85b, (1s,3r,5R,7S)-3-(((5-isopropylisoxazol-3-yl)methyl)amino)adamantan-1-61], 0 to 30%.

For `OC12CC3CC(C1)CC(NCc1noc(C4CCCCC4)n1)(C3)C2` [Example 86b, (1s,3r,5R,7S)-3-(((5-cyclohexyl-1,2,4-oxadiazol-3-yl)methyl)amino)adamantan-1-ol], the inhibition at 100 µM was in the range of 0 to 30%. Regarding `O=C(CNC12CC3CC(CC(C3)C1)C2)c1cccs1` [Example 87b, 2-(adamantan-1-ylamino)-1-(thiophen-2-yl)ethanone], the inhibition at 100 µM was 31 to 95%.

As to `C(#Cc1cccs1)CNC12CC3CC(CC(C3)C1)C2` [Example 88b], the inhibition at 100 µM fell in the range of 0 to 30%. Consider `CSc1ccc(-c2cc(CNC34CC5CC(CC3C5)C4)no2)cc1` [Example 90b, (2R,3as,5S,6as)-N-((5-(4-(methylthio)phenyl)isoxazol-3-yl)methyl)octahydro-2,5-methanopentalen-3a-amine], for which the inhibition at 100 µM is 0 to 30%. Still for that read-out and setting: the same measure for `CSc1ccc(-c2cc(CNC34CC5CCC(CC(C5)C3)C4)no2)cc1` [Example 91b, (1S,3R,8S)—N-((5-(4-(methylthio)phenyl)isoxazol-3-yl)methyl)tricyclo[4.3.1.13,8]undecan-1-amine]: 0 to 30%.
